This is an account of results in US7317187B2, “Frontal affinity chromatography/MALDI tandem mass spectrometry” (priority 2004, dated 2008).

pKd: −log10 of the molar value.

The target in experiment [1] is T1, entrapped dihydrofolate reductase (DHFR) (Escherichia coli, UniProt P0ABQ4).
T1 construct: made in house
Description: FAC/ESI-MS/MS on monolithic column with entrapped DHFR. In kind it is binding, E. coli. As to conditions: DHFR loaded column (25 pmol initial loading), compounds infused at 50 nM, 2 mM ammonium acetate, ESI/MS/MS detection.

Experiment [2] has as its target dihydrofolate reductase (DHFR) (Escherichia coli, UniProt P0ABQ4). Particulars: cited from earlier work.

Regarding `CC(=O)NC(=O)[C@H](O)[C@@H](O)[C@H](O)[C@H](O)CO` [N-acetyl-gluconamide], in experiment [1], the “retention (elution) time” value was found to be 1.5 min.
On to `Nc1nc2ncc(CNc3ccc(C(=O)N[C@@H](CCC(=O)O)C(=O)O)cc3)nc2c(=O)[nH]1` [folic acid], for which the “retention (elution) time” value in experiment [1] stood at 3 min. For the same compound, in experiment [2], the pKd was 4.96.

A word on the pKd: it is the Kd on a negative log10 scale, so that one unit is a factor of ten.
